{"source": "patent US20240117431A1", "about": "“STEM-CELL BASED BIOMARKER DISCOVERY” (THE REGENTS OF THE UNIVERSITY OF CALIFORNIA, priority 2020, published 2024)", "system": "HEK cells", "test": "Trypan blue cell viability / proliferation", "type": "cell-based", "details": "triple mutant TgUPRT + 5VU 200 μM, 5, 16, 24h, versus untreated cells, FIG. 11", "experimental": "Equal amount HEK cells (2×10^5) were seeded in a 6-well plate with 2 mL media. Twenty-four hour […], HEK cells were transfected with 1 μg empty plasmid (No GFP nor TgUPRT), double (2×MT) or triple (3×MT) TgUPRT mutants. 5VU was added to cells at 200 μM final concentration for 5, 16 and 24h treatment so that by the time cells were assayed with Trypan blue, they underwent 48h post transfection. DMSO (carrier) treatment (negative control) was done for 24h. Cells were stained with 0.04% Trypan blue for 5 minutes and subjected to cell counting using Countess II FL (Invitrogen, USA). Per condition, counting was done with n=2× biological and 3× technical replicates.", "data": [{"smiles": "C=Cc1c[nH]c(=O)[nH]c1=O", "note": "[compound 2, 5-Vinylpyrimidine-2,4(1H,3H)-dione]", "values": [{"measurement": "cell viability, Trypan blue", "value": "non-significant differences to untreated cells"}]}]}
